Reference: ChEMBL document CHEMBL1201862, “PubChem BioAssay data set” (2004)
Activity calls are given as the source filed them.

Assays:
Vero = assay: cells; type: functional; settings: Chlorocebus sabaeus
[1] = viability loss in HeLa cells – cytotoxicity control for MgcRacGAP inhibitor project, dose response (AID 624300); type: functional
[2] = activation of miR-122 Renilla sensor silencing – cell-based, Huh7 psiCHECK-miR122, Renilla luciferase, cherry-picked, dose response (AID 651956); type: functional;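 also: huh7 hepatoma cells stably carrying a psiCHECK-2 miR-122 sensor plasmid; renilla luciferase signal reporting endogenous miR-122 activity after 48 h compound exposure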
[3] = miR-122Act:qPCR miR-122 Measured in Cell-Based System Using RT-PCR - 2144-04_Activator_Dose_CherryPick_Activity. (absACnn = the concentration at which the curve crosses threshold nn uM); type: functional
[4] = cytotoxicity in HEK293 background cells – cell-based, dry powder, set 2, counter-screen for EBV LMP1 inhibitor project, dose response (AID 624374); type: functional
[5] = liver cell line viability loss – HepG2, luminescence plate reader, powder samples, set 2, cytotoxicity control, dose response (AID 651860); type: functional, cell-based
[6] = target: Metabotropic glutamate receptor 3 (Rattus norvegicus, UniProt P31422); assay: inhibitors of rat mGlu3 Galpha15 signaling – TREx293 cells, calcium flux, mGlu3 NAM project, dose response (AID 651840); type: functional
[7] = anti-trypanosomal activity in BESM host cells – imaging, CA-I/72 strain, bovine embryo skeletal muscle, dry powder, dose response (AID 651885); type: functional, cell-based
[8] = T. cruzi growth inhibition in host cells, dose response, cell-based, plate reader, dry powder, set 2 (AID 652275); type: functional
[9] = target: Potassium channel subfamily K member 3 (Homo sapiens, UniProt O14649); assay: inhibition of human KCNK3 channel flux – CHO cells, FluxOR thallium flux, SAR follow-up (AID 652212); type: functional
[10] = target: Potassium channel subfamily K member 9 (Homo sapiens, UniProt Q9NPC2); assay: KCNK9 flux blockade, concentration-response – cell-based, FluxOR thallium flux, selectivity assay for TASK1 inhibitor project, SAR follow-up (AID 652211); type: functional;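 also: potency is for inhibitors of the channel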
[11] = inhibitors of non-replicating M. tuberculosis, dose response, luciferase, dry powder (AID 651620); type: functional; settings: Mycobacterium tuberculosis
[12] = inhibitors of non-replicating M. tuberculosis, dose response, luciferase, dry powder (AID 651619); type: functional; settings: Mycobacterium tuberculosis
Protein Wnt-3a = Protein Wnt-3a (Mus musculus, UniProt P27467); assay: SAR analysis of small molecule antagonists of Gli-SUFU in a Wnt3a luminescent reporter assay.; type: functional
[13] = viability loss in THP-1 monocytes – THP-1 cells, cytotoxicity control for Vif-APOBEC3G degradation inhibitor project, dose response (AID 1117359); type: functional; settings: THP-1
cells = settings: A549
[14] = target: Induced myeloid leukemia cell differentiation protein Mcl-1 (Homo sapiens, UniProt Q07820); type: functional
[15] = reduced cellular PGC1a acetyl-lysine signal – cell-based, cherry-picked samples, dose response (AID 720514); type: functional;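 also: potency may reflect raised or lowered acetylation signal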

Induced myeloid leukemia cell differentiation protein Mcl-1, sequence (Q07820 whole entry): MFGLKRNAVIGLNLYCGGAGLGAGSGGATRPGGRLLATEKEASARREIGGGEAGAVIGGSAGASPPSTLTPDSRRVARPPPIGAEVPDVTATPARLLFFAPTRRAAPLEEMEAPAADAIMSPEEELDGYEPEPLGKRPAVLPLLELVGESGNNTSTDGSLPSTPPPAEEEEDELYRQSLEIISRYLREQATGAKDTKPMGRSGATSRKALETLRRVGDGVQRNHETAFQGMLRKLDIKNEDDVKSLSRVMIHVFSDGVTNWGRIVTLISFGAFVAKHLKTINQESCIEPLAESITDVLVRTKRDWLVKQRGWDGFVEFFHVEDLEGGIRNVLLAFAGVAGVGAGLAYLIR
Potassium channel subfamily K member 3, sequence (O14649 whole entry): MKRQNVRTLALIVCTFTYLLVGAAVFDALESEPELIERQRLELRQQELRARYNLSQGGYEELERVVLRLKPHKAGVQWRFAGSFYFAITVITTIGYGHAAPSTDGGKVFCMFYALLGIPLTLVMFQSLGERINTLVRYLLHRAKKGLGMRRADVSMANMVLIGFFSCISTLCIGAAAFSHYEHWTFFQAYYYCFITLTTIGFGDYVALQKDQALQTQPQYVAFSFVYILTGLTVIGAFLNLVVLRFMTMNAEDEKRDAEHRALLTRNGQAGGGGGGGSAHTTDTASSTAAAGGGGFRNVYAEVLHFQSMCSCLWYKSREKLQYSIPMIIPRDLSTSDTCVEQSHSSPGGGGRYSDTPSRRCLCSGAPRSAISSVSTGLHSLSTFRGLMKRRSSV
Protein Wnt-3a, sequence (P27467 whole entry): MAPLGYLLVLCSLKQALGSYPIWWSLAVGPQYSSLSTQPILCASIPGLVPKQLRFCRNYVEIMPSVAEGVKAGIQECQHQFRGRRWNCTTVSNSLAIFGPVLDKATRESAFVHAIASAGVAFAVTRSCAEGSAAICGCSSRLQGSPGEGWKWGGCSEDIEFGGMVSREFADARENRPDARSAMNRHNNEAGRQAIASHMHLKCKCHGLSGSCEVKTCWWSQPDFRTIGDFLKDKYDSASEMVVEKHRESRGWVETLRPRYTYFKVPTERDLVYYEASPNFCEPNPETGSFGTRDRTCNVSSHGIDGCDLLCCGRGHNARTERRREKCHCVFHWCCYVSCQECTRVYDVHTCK
Potassium channel subfamily K member 9, sequence (Q9NPC2 whole entry): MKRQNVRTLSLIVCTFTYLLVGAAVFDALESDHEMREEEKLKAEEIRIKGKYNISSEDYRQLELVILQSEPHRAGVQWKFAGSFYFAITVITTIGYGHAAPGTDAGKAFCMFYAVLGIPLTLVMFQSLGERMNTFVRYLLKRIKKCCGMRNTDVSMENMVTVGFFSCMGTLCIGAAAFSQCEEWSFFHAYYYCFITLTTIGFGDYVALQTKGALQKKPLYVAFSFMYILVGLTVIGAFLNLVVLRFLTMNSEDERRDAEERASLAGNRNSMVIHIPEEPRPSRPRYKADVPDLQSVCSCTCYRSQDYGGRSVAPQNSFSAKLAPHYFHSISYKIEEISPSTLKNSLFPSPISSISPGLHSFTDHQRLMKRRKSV
Metabotropic glutamate receptor 3, sequence (P31422 whole entry): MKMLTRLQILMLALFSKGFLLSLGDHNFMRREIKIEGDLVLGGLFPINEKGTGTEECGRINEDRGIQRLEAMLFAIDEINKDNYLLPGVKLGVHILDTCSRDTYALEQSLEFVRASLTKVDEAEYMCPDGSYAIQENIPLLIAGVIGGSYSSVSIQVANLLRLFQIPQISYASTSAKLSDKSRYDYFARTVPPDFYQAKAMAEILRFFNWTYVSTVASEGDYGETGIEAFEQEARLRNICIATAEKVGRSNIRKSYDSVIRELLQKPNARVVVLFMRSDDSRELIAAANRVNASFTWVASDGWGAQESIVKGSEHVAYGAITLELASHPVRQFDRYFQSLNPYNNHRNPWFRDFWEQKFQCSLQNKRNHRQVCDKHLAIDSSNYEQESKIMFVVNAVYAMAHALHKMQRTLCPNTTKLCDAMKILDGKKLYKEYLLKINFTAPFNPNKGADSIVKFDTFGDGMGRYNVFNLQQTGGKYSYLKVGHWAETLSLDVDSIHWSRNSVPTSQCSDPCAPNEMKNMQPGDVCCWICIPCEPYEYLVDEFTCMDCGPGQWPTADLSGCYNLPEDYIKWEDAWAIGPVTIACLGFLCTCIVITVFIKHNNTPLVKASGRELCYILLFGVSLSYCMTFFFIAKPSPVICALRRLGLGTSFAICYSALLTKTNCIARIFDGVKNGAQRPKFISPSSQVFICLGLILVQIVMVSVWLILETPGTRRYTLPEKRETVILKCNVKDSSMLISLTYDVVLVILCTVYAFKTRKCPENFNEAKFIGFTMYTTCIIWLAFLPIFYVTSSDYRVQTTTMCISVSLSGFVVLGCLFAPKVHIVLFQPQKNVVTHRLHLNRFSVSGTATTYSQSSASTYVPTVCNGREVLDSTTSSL

SMILES: O=[N+]([O-])/C=C/c1cc2ccccc2[nH]1
- CC50 (Vero): > 25 µM (active)
- CC50 [1]: 94.6 µM (active)

SMILES: Cc1cccc(NC(=O)Nc2ccc3c(c2)C(=O)N(C)[C@@H]2CC[C@H](CC(=O)NCc4ccccc4Cl)O[C@H]2CO3)c1
- AC50 [2]: 9.59 µM (active)
- AbsAC40_uM [3]: 8.38 µM

SMILES: C[C@@H]1CN([C@@H](C)CO)C(=O)Cc2cc(NC(=O)Cc3ccccc3)ccc2O[C@@H]1CN(C)Cc1ccc(C(F)(F)F)cc1
- AbsAC35 [4]: 279.95 µM

SMILES: O=C(O)[C@@H]1CCCC[C@@H]1C(=O)N1CCc2ccccc2[C@@H]1CN1C(=O)c2ccccc2C1=O
- AC50 [5]: > 52 µM (inactive)

SMILES: COc1ccc(C#Cc2ccc(C(=O)NC(C)CO)cc2)cc1 (stereo not drawn)
- IC50 [6]: 4.73 µM

SMILES: C[C@H]1CN([C@@H](C)CO)C(=O)c2cccc(NC(=O)c3ccncc3)c2O[C@@H]1CN(C)Cc1ccncc1
- IC50 [7]: > 20 µM (inactive)

SMILES: C[C@H]1CN([C@@H](C)CO)C(=O)c2cccc(NC(=O)c3ccncc3)c2O[C@@H]1CN(C)Cc1cccc(Cl)c1Cl
- AC50 [8]: 0.0255 µM (active)

SMILES: CCOc1ccccc1NC(=O)c1cccc(NC(=O)C2CC2)c1
- IC50 [9]: 1.07 µM (active)
- IC50 [10]: 10.2 µM (active)

SMILES: c1ccc(CSc2nnc(-c3ccncc3)o2)nc1
- IC90 [11]: 16 µM (active)
- IC90 [12]: 16 µM (active)

SMILES: CC(C)(C)OC(=O)N1CCN(c2cc(NC(=O)c3ccccc3)ncn2)CC1
- IC50 (Protein Wnt-3a): > 21.8 µM (inactive)

SMILES: Cc1cccn2c(=O)c3cc(C(=O)NCc4ccco4)c(=N)n(CCc4ccccc4)c3nc12
- CC50 [13]: 38.1 µM (active)
- AC50 (cells): 39.9 µM (active)
- IC50 [14]: 3.57 µM (active)
- AC50 [15]: 28.4 µM (active)
